# Reference: patent publication US20150125425A1, “TREATMENT OF LIVER CANCER” (priority 2012, published 2015)
# Key:
# [1] = test system: HCC; details: monotherapy of HCC; cited from earlier work
# [2] = test system: HuH7 xenografts; experiment: HSV1716 in combination with sorafenib in vivo in subcutaneous flank HuH7 xenografts; parameters: species or system nude mice
# Protocol: Female 6-8 week old athymic nude mice (Charles River Labs, UK) were maintained under specific pathogen free conditions. Actively growing HuH7 cells were harvested and, after re-suspension in PBS, 1×10^6 cells per mouse were injected subcutaneously. Treatments were started when tumours reached 5 mm in diameter. Mice were inspected daily, when tumour diameters reached 15 mm they were sacrificed and the tumour xenograft removed for viral extraction. The viral load in tumours and various organs was assessed by plaque forming assay on Vero cells. Extracted intact tumours/organs were frozen immediately at −70° C. and, after thawing, the tissues were mechanically homogenized in a Retsch homogenizer in 1 ml PBS prior to titration.
# Sorafenib for IP injections was obtained from Selleckchem UK, (S1040), and was reported as 100% pure. The dose was 10 mg/kg equivalent to 10 μg/g or 250 μg/mouse (25 g). The 0.1 ml intraperitoneal dose therefore required 250 μg/0.1 ml or 2.5 mg/ml. 50 mg sorafenib was dissolved in 0.5 ml DMSO and this was added to 19.5 ml PBS with 5% Tween80 and 5% PEG400 (both v/v). This is equivalent to c4 mM sorafenib. HSV1716gCluc which expresses luciferase from the HSV-1 gC promoter. The stock virus solution was 8×10^7 pfu/ml and 0.125 ml virus stock were added to 10 ml compound sodium lactate with 10% glycerol to give the injection solution at a titre of 1×10^6 pfu/ml. 0.1 ml injected it/mouse and is equivalent to 1×10^5 pfu.
# In vivo combination with sorafenib and HSV1716 was analysed using the HuH7 subcutaneous xenograft HCC model in nude mice. Groups were—no treatment (n=10), sorafenib (n=6), HSV1716 (n=10), HSV1716 sorafenib (n=12). HSV1716gC-luc at 1×10^5 pfu was given on days 1, 3 and 9 and sorafenib at 10 mg/kg (Liu et al Cancer Res 2006; 66:11851-11858), was administered IP (Wang et al., Cancer Biol & Therapy 2011; 12:3, 229-238) every 2nd day from day 2 on 9 occasions. Virus was monitored by IVIS and tumour growth (FIG. 37) and survival (FIG. 38) were recorded.
structure (smiles),measurement,setting,value
"CNC(=O)c1cc(Oc2ccc(NC(=O)Nc3ccc(Cl)c(C(F)(F)F)c3)cc2)ccn1 [sorafenib, 4-[4-[[4-chloro-3-(trifluoromethyl)phenyl]carbamoylamino]phenoxy]-N-methyl-pyridine-2-carboxamide]",prolongation of median survival and the time to progression,[1],~3 months
same,reduction of the risk of death during year 1,[1],31%
same,xenograft growth,[2]; HuH7 xenografts (FIG. 37),inhibited
same,mouse survival,[2]; HuH7 xenografts (FIG. 38),survived longer than controls
same,period in which no mice died,"[2]; HuH7 xenografts (FIG. 38), virus 1×10^5 pfu days 1, 3, 9, sorafenib 10 mg/kg IP",about 4 days
